Here are results for 16 compounds from patent US20060089378A1 (priority 2004, published 2006).

The target in one assay is T1, CB2 receptor (human) (Homo sapiens, UniProt P34972).
T1 construct: expressed in transfected cells
Put plainly: Functional cell-based assay, CB2 receptor mediated change in CRE β-gal expression (adenylate cyclase activity) in SK-N-MC cells.

In a further assay the target is T2, Cannabinoid CB2 Receptor (Homo sapiens, UniProt P34972).
T2 construct: expressed in transfected cells
T2 sequence (P34972 whole entry): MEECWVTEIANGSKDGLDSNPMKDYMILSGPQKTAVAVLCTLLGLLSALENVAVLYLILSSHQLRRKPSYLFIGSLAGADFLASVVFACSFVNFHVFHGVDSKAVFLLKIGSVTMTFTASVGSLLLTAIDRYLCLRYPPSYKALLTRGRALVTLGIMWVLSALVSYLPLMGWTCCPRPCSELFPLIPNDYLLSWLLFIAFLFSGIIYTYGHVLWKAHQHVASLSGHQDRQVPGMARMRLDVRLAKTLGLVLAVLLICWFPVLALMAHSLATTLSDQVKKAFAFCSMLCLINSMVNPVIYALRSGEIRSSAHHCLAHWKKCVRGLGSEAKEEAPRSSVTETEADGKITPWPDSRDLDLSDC
Put plainly: Binding assay for CB2 agonists or inverse agonists (radioligand competition, membranes of transfected SK-N-MC cells). Particulars: for inhibition at 0.2 µM: read-out: Cannabinoid CB2 Receptor Binding percent inhibition.

The target in another assay is T3, Cannabinoid CB1 Receptor (Homo sapiens, UniProt P21554).
T3 construct: expressed in transfected cells
T3 sequence (P21554 whole entry): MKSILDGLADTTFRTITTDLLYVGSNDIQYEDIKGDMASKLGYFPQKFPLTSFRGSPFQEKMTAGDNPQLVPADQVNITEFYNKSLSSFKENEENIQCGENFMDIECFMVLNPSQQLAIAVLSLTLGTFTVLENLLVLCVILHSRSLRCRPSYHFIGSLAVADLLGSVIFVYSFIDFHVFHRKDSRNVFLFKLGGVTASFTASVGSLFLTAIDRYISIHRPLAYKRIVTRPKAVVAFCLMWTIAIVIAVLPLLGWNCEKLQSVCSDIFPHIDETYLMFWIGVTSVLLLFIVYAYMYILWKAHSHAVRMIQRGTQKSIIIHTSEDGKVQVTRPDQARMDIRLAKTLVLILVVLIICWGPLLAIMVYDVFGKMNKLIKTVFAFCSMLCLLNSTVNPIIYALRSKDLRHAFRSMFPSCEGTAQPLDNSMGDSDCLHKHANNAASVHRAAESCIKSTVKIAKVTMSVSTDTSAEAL
Briefly: Binding assay for CB1 agonists or inverse agonists (radioligand competition, membranes of transfected SK-N-MC cells). (In general: Displacement assays read how much labelled ligand stays bound in the presence of the test substance.)

The next assay has as its target CB1 receptor (human) (Homo sapiens, UniProt P21554). Put plainly: cell-based. Particulars: for CB1 Receptor Functional Activity (change in functional activity, CRE β-gal): one compound concentration, β-galactosidase activity relative to vehicle treated cells.

A word on the EC50: it is the concentration needed to bring the measured effect to its halfway point. Usually IC50 stands for the concentration that gives 50% inhibition. The term inhibition denotes the drop in the measured response relative to a control, in per cent.

Where two headings read alike, the source gives them in different places.

Chain of CB1 receptor (human) (P21554 whole entry): as above
T1 sequence (P34972 whole entry): as the sequence (P34972 whole entry) above

In turn, `Cc1ccc(S(=O)(=O)N2CCc3c(c(C(=O)NC4C5(C)CCC(C5)C4(C)C)nn3C3CCCCC3)C2)cc1` (stereo not drawn) [Cpd 124, 1-cyclohexyl-5-(toluene-4-sulfonyl)-4,5,6,7-tetrahydro-1H-pyrazolo[4,3-c]pyridine-3-carboxylic acid (1,3,3-trimethyl-bicyclo[2.2.1]hept-2-yl)-amide] had an EC50 on CB2 receptor (human) of 30 nM. For the same compound, the IC50 at Cannabinoid CB2 Receptor was 20 nM; at Cannabinoid CB1 Receptor it was 1500 nM.
Consider `CC(C)(C)OC(=O)N1CCc2c(c(C(=O)NC3C4(C)CCC(C4)C3(C)C)nn2C2CCCCC2)C1` (stereo not drawn) [Cpd 117, 1-cyclohexyl-3-(1,3,3-trimethyl-bicyclo[2.2.1]hept-2-ylcarbamoyl)-1,4,6,7-tetrahydro-pyrazolo[4,3-c]pyridine-5-carboxylic acid tert-butyl ester], for which, on CB2 receptor (human) (SK-N-MC cells expressing CRE β-gal and human CB2, forskolin, β-galactosidase activity, varying compound concentrations, read-out: CB2 Receptor Functional Inverse Agonist EC50), the EC50 worked out at 90 nM. The IC50 turned out to be 10 nM on Cannabinoid CB2 Receptor and 11700 nM on Cannabinoid CB1 Receptor. At CB1 receptor (human), the “CB1 Receptor Functional Activity (change in functional activity, CRE β-gal)” value is recorded as −10%.
`CCOC(=O)N1CCc2c(c(C(=O)NC3C4(C)CCC(C4)C3(C)C)nn2C2CCCCC2)C1` (stereo not drawn) [Cpd 120, 1-cyclohexyl-3-(1,3,3-trimethyl-bicyclo[2.2.1]hept-2-ylcarbamoyl)-1,4,6,7-tetrahydro-pyrazolo[4,3-c]pyridine-5-carboxylic acid ethyl ester]: the EC50 at CB2 receptor (human) was 50 nM; on CB1 receptor (human) it was 20 nM. The results for the IC50 on Cannabinoid CB2 Receptor and on Cannabinoid CB1 Receptor were 20 nM and 500 nM, respectively.
Compound `CC(=O)N1CCc2c(c(C(=O)NC3C4(C)CCC(C4)C3(C)C)nn2C2CCCCC2)C1` (stereo not drawn) [Cpd 123, 5-acetyl-1-cyclohexyl-4,5,6,7-tetrahydro-1H-pyrazolo[4,3-c]pyridine-3-carboxylic acid (1,3,3-trimethyl-bicyclo[2.2.1]hept-2-yl)-amide] yielded an EC50 on CB2 receptor (human) of 14 nM. The figures for the IC50 at Cannabinoid CB2 Receptor and at Cannabinoid CB1 Receptor were 40 nM and 200 nM, respectively.
Take `COC(=O)N1CCc2c(c(C(=O)NC3C4(C)CCC(C4)C3(C)C)nn2Cc2ccccc2)C1` (stereo not drawn) [Cpd 106, 1-benzyl-3-(1,3,3-trimethyl-bicyclo[2.2.1]hept-2-ylcarbamoyl)-1,4,6,7-tetrahydro-pyrazolo[4,3-c]pyridine-5-carboxylic acid methyl ester]: the EC50 is 0.8 nM on CB2 receptor (human) and 8900 nM at CB1 receptor (human). The values for the IC50 on Cannabinoid CB2 Receptor and on Cannabinoid CB1 Receptor were 2 nM and 200 nM, respectively.
Consider `CCOC(=O)N1CCc2c(c(C(=O)NC3C4(C)CCC(C4)C3(C)C)nn2Cc2ccccc2)C1` (stereo not drawn) [Cpd 107, 1-benzyl-3-(1,3,3-trimethyl-bicyclo[2.2.1]hept-2-ylcarbamoyl)-1,4,6,7-tetrahydro-pyrazolo[4,3-c]pyridine-5-carboxylic acid ethyl ester], for which the EC50 on CB2 receptor (human) was 6 nM. For the same compound, the IC50 at Cannabinoid CB2 Receptor stood at 3 nM; at Cannabinoid CB1 Receptor, 100 nM. The “CB1 Receptor Functional Activity (change in functional activity, CRE β-gal)” value at CB1 receptor (human) is on record as −6%.
In the case of `CC12CCC(C1)C(C)(C)C2NC(=O)c1nn(C2CCCCC2)c2c1CN(S(C)(=O)=O)CC2` (stereo not drawn) [Cpd 133, 1-cyclohexyl-5-methanesulfonyl-4,5,6,7-tetrahydro-1H-pyrazolo[4,3-c]pyridine-3-carboxylic acid (1,3,3-trimethyl-bicyclo[2.2.1]hept-2-yl)-amide], the “change in functional activity” value on CB2 receptor (human) (CB2 section, one compound concentration, relative to vehicle treated cell activity (100%)) was −29%. Also, the IC50 came to 300 nM at Cannabinoid CB2 Receptor and 400 nM at Cannabinoid CB1 Receptor. The same compound came in with an EC50 on CB1 receptor (human) of 730 nM.
Consider `COC(=O)N1CCc2c(c(C(=O)NC3C4(C)CCC(C4)C3(C)C)nn2C2CCCCC2)C1` (stereo not drawn) [Cpd 119, 1-cyclohexyl-3-(1,3,3-trimethyl-bicyclo[2.2.1]hept-2-ylcarbamoyl)-1,4,6,7-tetrahydro-pyrazolo[4,3-c]pyridine-5-carboxylic acid methyl ester], for which the EC50 on CB2 receptor (human) came out at 20 nM; on CB1 receptor (human) it was 200 nM. The 50% inhibitory concentration (IC50) on Cannabinoid CB2 Receptor was determined as 90 nM; on Cannabinoid CB1 Receptor, 200 nM.
Regarding `COc1ccc(/C=C2\CN(S(=O)(=O)N(C)C)Cc3c(C(=O)NC(C)c4ccccn4)nn(-c4ccc(Cl)cc4Cl)c32)cc1` (stereo not drawn) [Cpd 64, (7E)-1-(2,4-dichloro-phenyl)-5-dimethylsulfamoyl-7-(4-methoxy-benzylidene)-4,5,6,7-tetrahydro-1H-pyrazolo[4,3-c]pyridine-3-carboxylic acid (1-pyridin-2-yl-ethyl)-amide], the inhibition at 0.2 µM at Cannabinoid CB2 Receptor is 62%. The same compound registered an EC50 on CB1 receptor (human) of 1 nM. The IC50 at Cannabinoid CB1 Receptor amounted to 6 nM.
Take `COc1ccc(/C=C2\CN(C(C)=O)Cc3c(C(=O)N[C@H](C)c4ccccn4)nn(-c4ccc(Cl)cc4Cl)c32)cc1` [Cpd 97, (7E)-5-acetyl-1-(2,4-dichloro-phenyl)-7-(4-methoxy-benzylidene)-4,5,6,7-tetrahydro-1H-pyrazolo[4,3-c]pyridine-3-carboxylic acid [(1R)-1-pyridin-2-yl-ethyl]-amide]: the inhibition at 0.2 µM at Cannabinoid CB2 Receptor (test concentration of 0.2 μM, compounds without an IC50 binding value) was determined as 33%. The compound also yielded an EC50 at CB1 receptor (human) of 10 nM. The compound also gave an IC50 at Cannabinoid CB1 Receptor of 7 nM.
Consider `CC12CCC(C1)C(C)(C)C2NC(=O)c1nn(C2CCCCC2)c2c1CNCC2` (stereo not drawn) [Cpd 118, 1-cyclohexyl-4,5,6,7-tetrahydro-1H-pyrazolo[4,3-c]pyridine-3-carboxylic acid (1,3,3-trimethyl-bicyclo[2.2.1]hept-2-yl)-amide], for which the IC50 was 1800 nM at Cannabinoid CB2 Receptor (human CB2, SK-N-MC cell membranes, calculated by linear regression from percent inhibition at various concentrations, read-out: Cannabinoid CB2 Receptor Binding IC50) and 800 nM on Cannabinoid CB1 Receptor. Further, at CB1 receptor (human), the “CB1 Receptor Functional Activity (change in functional activity, CRE β-gal)” value is 4%.
Take `CC(=O)N1CCc2c(c(C(=O)NC3C4(C)CCC(C4)C3(C)C)nn2Cc2ccccc2)C1` (stereo not drawn) [Cpd 109, 5-acetyl-1-benzyl-4,5,6,7-tetrahydro-1H-pyrazolo[4,3-c]pyridine-3-carboxylic acid (1,3,3-trimethyl-bicyclo[2.2.1]hept-2-yl)-amide]: the IC50 on Cannabinoid CB2 Receptor amounted to 80 nM; on Cannabinoid CB1 Receptor, 1300 nM. This compound yielded an EC50 at CB1 receptor (human) of 8100 nM.
In the case of `COc1ccc(/C=C2\CN(C(=O)OC(C)(C)C)Cc3c(C(=O)NN4CCCCC4)nn(-c4ccc(Cl)cc4Cl)c32)cc1` [Cpd 37, (7E)-1-(2,4-dichloro-phenyl)-7-(4-methoxy-benzylidene)-3-(piperidin-1-ylcarbamoyl)-1,4,6,7-tetrahydro-pyrazolo[4,3-c]pyridine-5-carboxylic acid tert-butyl ester], on Cannabinoid CB2 Receptor, the inhibition at 0.2 µM amounted to 27%. This compound gave an EC50 at CB1 receptor (human) of 5 nM. The compound also registered an IC50 at Cannabinoid CB1 Receptor of 90 nM.
For `C[C@@H](NC(=O)c1nn(-c2ccc(Cl)cc2Cl)c2c1CN(C(=O)OC(C)(C)C)C/C2=C\c1ccc(F)cc1)C1CCCCC1` [Cpd 8, (7E)-3-[(1R)-1-cyclohexyl-ethylcarbamoyl]-1-(2,4-dichloro-phenyl)-7-(4-fluoro-benzylidene)-1,4,6,7-tetrahydro-pyrazolo[4,3-c]pyridine-5-carboxylic acid tert-butyl ester], the inhibition at 0.2 µM at Cannabinoid CB2 Receptor turned out to be 34%. This compound also returned an EC50 on CB1 receptor (human) of 200 nM. The compound further yielded an IC50 at Cannabinoid CB1 Receptor of 60 nM.
The like results for `CCNC(=O)N1C/C(=C\c2ccc(F)cc2)c2c(c(C(=O)N[C@H](C)C3CCCCC3)nn2-c2ccc(Cl)cc2Cl)C1` [Cpd 32, (7E)-1-(2,4-dichloro-phenyl)-7-(4-fluoro-benzylidene)-1,4,6,7-tetrahydro-pyrazolo[4,3-c]pyridine-3,5-dicarboxylic acid 3-{[(1R)-1-cyclohexyl-ethyl]-amide} 5-ethylamide] were, in that order, 6%, 3 nM and 20 nM.
For `COc1ccc(/C=C2\CN(S(C)(=O)=O)Cc3c(C(=O)NC(C)c4ccccn4)nn(-c4ccc(Cl)cc4Cl)c32)cc1` (stereo not drawn) [Cpd 63, (7E)-1-(2,4-dichloro-phenyl)-5-methanesulfonyl-7-(4-methoxy-benzylidene)-4,5,6,7-tetrahydro-1H-pyrazolo[4,3-c]pyridine-3-carboxylic acid (1-pyridin-2-yl-ethyl)-amide], on Cannabinoid CB2 Receptor, the inhibition at 0.2 µM was 48%. A half-maximal response at CB1 receptor (human) (EC50) required 3 nM. At Cannabinoid CB1 Receptor, this compound had an IC50 of 6 nM.
